Patent US10201516B2 (The Regents of the University of California, priority 2014, dated 2019)
Entries after “also recorded” stand apart in the source; their conditions may differ.

Tests used:
Fzd8 = Fzd8 mRNA expression in PANC1 and PANC2.13 (qPCR); format: cell-based; details: human pancreatic cancer cells (FIG. 13B)
Experimental: (§1) Total RNAs were isolated and purified using QIAGEN RNAeasy kit. 1 μg RNA per specimen was reverse transcribed into cDNA using SuperScript™ First-Strand Synthesis System for RT-PCR (Invitrogen). Possible contamination of genomic DNA was excluded by treatments of DNase I. Quantitative real-time PCR array analysis was performed using SYBR Green (Applied Biosystem). Fold differences and statistical analysis were calculated using the GraphPad Prism 4.00 for Windows (GraphPad Software). The mouse Stem Cell Signaling RT^2Profiler PCR array on 96-well plate (PAMM-047Z) was purchased from SABiosciences.

[1] = test system: Ras^V12-transformed NIH/3T3 cells; assay: Tumor initiation of Ras^V12-transformed NIH/3T3 cells in nude mice; format: in vivo, mouse
Experimental: All experiments were approved by the IACUC of the University of California, San Francisco. Ras^V12-transformed NIH/3T3 cells were subcutaneously injected in female nude mice (Nu/Nu) at 50, 100 or 1,000 cells per flank. Palpable tumors were measured twice a week. The animals were divided into five mice per group. Pancreatic adenocarcinoma cells derived from Braf^CA and Kras^LSL-G12D mice are provided by Eric Collisson, and genotyped as described (Collison et al., Nat Med 17:500-503, 2011; Dankort et al., Genes Dev 21:379-384, 2007; Hingorani et al., Cancer Cell 4:[…], 2003). One hundred cells were orthotopically implanted in 6- to 8-week-old FVB/n mice in 20 μL 50% Matrigel using a 28.5-gauge needle. Mice were monitored for one month and were euthanized when distressed.
(§2) The drug was daily administrated into either NOD-SCID or athymic nude mice by oral gavages (OG) at 1 mg/kg or intraperitoneal (I.P) injection at 0.5 mg/kg. 10% DMSO, 10% cremophor, and 80% saline solutions were used as the solvent and vehicle control.

[2] = Toxicity by body weight changes in treated mice; format: in vivo, mouse; details: oral or i.p. prostratin (FIG. 13D)
Experimental: as §2

[3] = test system: K-Ras^G12V-induced papillomas; assay: K-Ras^G12V-induced papilloma in LRIG1cre/ER/LSL-Ras^G12V GEMM; format: in vivo, mouse
From the text: (§3) We first used a papilloma model driven by H- or K-Ras^G12V under the control of a skin stem cell promoter, Lrig1 (FIG. 7C) (Jaks et al., Exp Cell Res 316:1422-1428, 2010; Page et al., Cell Stem Cell 13, 471-482, 2013). In this GEMM, tamoxifen inducible Cre recombinase initiates the expression of oncogenic H- or K-Ras^G12V, and the enforced oncogenic Ras expression disrupts the skin hemeostasis during wound healing and further induces papilloma formations (FIG. 7C).
(§4) Lrig1 Cre/ER/LSL Hras and Lrig1 Cre/ER/LSL-Kras^G12D mice have been backcrossed into the FVB/N background over multiple generations to minimize the effects of genetic heterogeneity on tumor development. Cre recombinase was activated in both groups of mice by administering a single dose of 4oht (Tamoxifen), topically applied at 8 weeks of age. On day 7 thereafter, wounding was induced on their backs by cutting a 2 cm incision for papilloma development.

LEF1 = LEF1 mRNA expression in PANC1 and PANC2.13 (qPCR); format: cell-based; details: human pancreatic cancer cells (FIG. 13B)
Experimental: as §1

PANC1 and PANC2.13 = assay: Prevention of subcutaneous human pancreatic xenograft tumors in nude mice; format: in vivo, mouse
Experimental: as §2

CaMKii [4] = assay: Western blot of phospho-CaMKii in Ras-transformed NIH/3T3 cells (and human pancreatic cancer cell lines); format: cell-based, mouse
Experimental: (§5) Experimental cells were washed twice in ice-cold PBS and lysed in 1% Triton lysis buffer [25 mmol/L Tris pH 7.5, 150 mmol/L NaCl, 1% Triton X-100, 1 mmol/L EDTA, 1 mmol/L EGTA, 20 mmol/L NaF, 1 mmol/L […], and 1 mmol/L DTT] supplemented with a protease inhibitor cocktail (Roche) and cleared by centrifugation. Protein concentrations were determined by the Bio-Rad Protein Assay (Bio-Rad). Equal amounts of protein extracts were resolved using SDS-PAGE (NuPAGE; Invitrogen), transferred to a nitrocellulose membrane, and immunoblotted with primary antibodies indicated, followed by secondary antibodies labeled with either IRDye800 (Rockland) or Alexa Fluor 680 (Molecular Probes) and were visualized using a LI-COR Odyssey scanner. A complete list of primary antibodies is provided in the Extended Experimental Procedures.

CaMKii [5] = assay: Western blot of phospho-CaMKii in rescued Rasless MEFs; format: cell-based, mouse
Experimental: as §5

[6] = test system: PANC2.13 and PANC2.03 orthotopic tumors; assay: Established orthotopic human pancreatic tumors, burden by human cfDNA in plasma; format: in vivo, mouse; details: treatment from 14th day post-implantation, over time (FIG. 7B)
Experimental: as §2
All blood samples were collected in K2EDTA containing tubes (BD Microtainer, Ref 365974) and centrifuged at 1,500 g for 10 min. Then the supernatants were carefully collected from the top portion of the plasma to eliminate the possibility of cell contaminations. The plasma was stored at −80° C. until further use. The cfDNA was extracted from 100 μL of plasma using NucleoSpin Plasma XS kit (Macherey-Nagel; 740900).
Nucleic acid concentrations in all plasma samples were measured by quantitative polymerase chain reaction (PCR) using the AB7900HT (Applied Biosystems, Foster City, CA, USA) and TaqMan Universal PCR Master Mix (Applied Biosystems) according to the manufacturer's protocol. For quantification of human β-actin genomic DNA in mouse plasma samples, the following custom primers and probe sets were used: […]

[7] = test system: Ras^V12-transformed NIH/3T3 cells; assay: Drug sensitization assay (MTS cell viability), Ras-transformed NIH/3T3; format: cell-based, mouse
Experimental: The dead cells were removed, and MTS assay (Promega, G5430) was performed for determining the percentage of viable cells, according to the manufacturer's instructions. DMSO was used as vehicle control and for normalization.

[8] = test system: H-Ras^G12V-induced tumors; assay: H-Ras^G12V-induced papilloma in LRIG1cre/ER/LSL-Ras^G12V GEMM; format: in vivo, mouse; details: daily treatment (FIG. 7D)
From the text: as §3, §4

[9] = PKC activators, literature; cited from earlier work
[10] = subcutaneous PANC2.13 (FIG. 6D)

For CC(=O)O[C@@]12C[C@@H](C)[C@@]3(O)C(C=C(CO)C[C@]4(O)C(=O)C(C)=C[C@@H]34)[C@@H]1C2(C)C (stereo partly drawn) [prostratin, 12-deoxyphorbol-13-acetate], the “expression of Fzd8” value (Fzd8) was “increased expression of Fzd8”, the “tumorigenicity of K-Ras^V12-transformed cells” value ([1]; administered orally or intra-peritoneally, nude mice (FIG. 13D)) was “dramatically suppressed the tumorigenicity” and the “size of subcutaneous tumor derived from K-Ras^V12-NIH/3T3 cells” value ([1]; vs vehicle control (FIG. 13D-E)) was “much smaller”. The “phosphor-CaMKii in tumor derived from K-Ras^V12-NIH/3T3 cells” value ([1]; vs vehicle control (FIG. 13E)) was “greatly increased phosphor-CaMKii”, the “systemic toxicity (body weight changes)” value [2] was “no evidence of systemic toxicity; also recorded: no systematically toxic effects” and the “EMT markers (E-cadherin, vimentin) in K-Ras^G12V-driven skin tumors” value ([3]; FIG. 7E) was “maintained strong expression of epithelial maker”. The “growth rate of K-Ras^G12V-induced papillomas” value ([3]; FIG. 14E) was “significantly slowed down the growth rate”, the “formation of papillomas driven by K-Ras^G12V” value ([3]; daily treatment (FIG. 7D)) was “significantly delayed/reduced the formation of papillomas” and the “expression of β-catenin targeted gene LEF1” value (LEF1) was “reduced the expressions of β-catenin targeted gene, LEF1”. For the same compound, the “tumor initiation and tumor size by bioluminescence imaging (BLI)” value (PANC1 and PANC2.13; subcutaneous PANC2.13 (FIG. 6C)) was “profoundly suppressed tumor initiation and tumor size”, the “expression of Ki67” value (PANC1 and PANC2.13; [10]) was “reduced expression of Ki67” and the “tumor growth rate during therapy” value (PANC1 and PANC2.13; [10]) was “dramatically reduced tumor growth rate”. The “average size of established tumors” value (PANC1 and PANC2.13; subcutaneous PANC2.13, vs control group (FIG. 6B)) was “much smaller”, the “frequency of tumor formation” value (PANC1 and PANC2.13; subcutaneous xenograft, oral prostratin from one day before implantation, vs vehicle (FIG. 6A)) was “significantly reduced the frequency of tumor formation” and the “activation of CaMKii” value (CaMKii [4]; NIH/3T3 cells transformed by K-Ras^V12-S181A mutant or H-Ras^V12 (legend FIG. 5I)) was “not K-Ras^V12-S181A mutant or H-Ras^V12”. The “levels of phospho-CaMKii” value (CaMKii [4]; Ras^V12-transformed cells and human pancreatic cancer cell lines (FIG. 5H-I)) was “dramatically elevated levels of phospho-CaMKii”, the “activity of CaMKii” value (CaMKii [4]; cells transformed by H-Ras^V12 or K-Ras^V12-S181D (FIG. 5I)) was “did not alter the activity of CaMKii” and the phospho-CaMKii response (CaMKii [5]; Rasless MEFs rescued with H-Ras^V12 (FIG. 13C)) was “minimal responses”. For the same compound, the phospho-CaMKii (CaMKii [5]; Rasless MEFs rescued with K-Ras(4B)^V12 (FIG. 13C)) was “increased phospho-CaMKii”, the “concentration of human specific cfDNA” value [6] was “dramatically decreased” and the “sensitivity to prostratin (cell viability)” value ([7]; H-Ras^V12 or K-Ras^V12-S181D-transformed NIH/3T3 cells (FIG. 5J)) was “but not H-Ras^V12 or K-Ras^V12-S181D, -transformed NIH/3T3 cells, were sensitive to prostratin”. For the same compound, the cell viability ([7]; K-Ras^V12-transformed NIH/3T3 cells (FIG. 5J)) was “dramatically reduced cell viability”, the “initiation of H-Ras^G12V-induced tumors” value [8] was “no effects” and the tumor promotion [9] was “far less potent for tumor promotion”.
